Test results taken from PubChem BioAssay (NCI).
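Where inhibition never reached the appropriate level, the endpoint shown equals the highest concentration tested. Otherwise, values were interpolated linearly from a five-concentration, 48-hour dose response in 96-well plates. At the GI50, growth is halved. TGI: concentration producing complete growth inhibition.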 *1 amine or outer side, *2 acyl side, *3 side chain or, on linkers, in order; H or OH if unused. Where a SMILES comes first, the peptide text is derived from it. [ ]: non-standard residue; d: D form. ξ: configuration not given here. X21 = CC[C@@H](C)C(N[*:1])C(=O)[*:2]; ξR = N=C(N)NCCCC(N)C(=O)O; ξI = CCC(C)C(N)C(=O)O; ξL = CC(C)CC(N)C(=O)O; ξK = NCCCCC(N)C(=O)O; ξV = CC(C)C(N)C(=O)O; ξA = CC(N)C(=O)O

How the values were obtained:
Experiment in all cases: growth of human tumour cells (NCI), 48 h
OVCAR-8 ovarian = test system: OVCAR-8 ovarian
HOP-92 NSCLC = test system: HOP-92 NSCLC
A549 NSCLC = test system: A549 NSCLC
DU-145 prostate = test system: DU-145 prostate
UO-31 renal = test system: UO-31 renal
RPMI-8226 leukemia = test system: RPMI-8226 leukemia
COLO 205 colon = test system: COLO 205 colon
OVCAR-4 ovarian = test system: OVCAR-4 ovarian
NCI-H522 lung = test system: NCI-H522 lung
CCRF-CEM leukemia = test system: CCRF-CEM leukemia

SMILES | GI50 (OVCAR-8 ovarian) [µM] | TGI (OVCAR-8 ovarian) [µM] | GI50 (HOP-92 NSCLC) [µM] | TGI (HOP-92 NSCLC) [µM] | GI50 (A549 NSCLC) [µM] | TGI (A549 NSCLC) [µM] | GI50 (DU-145 prostate) [µM] | TGI (DU-145 prostate) [µM] | GI50 (UO-31 renal) [µM] | TGI (UO-31 renal) [µM] | GI50 (RPMI-8226 leukemia) [µM] | TGI (RPMI-8226 leukemia) [µM] | GI50 (COLO 205 colon) [µM] | TGI (COLO 205 colon) [µM] | GI50 (OVCAR-4 ovarian) [µM] | TGI (OVCAR-4 ovarian) [µM] | GI50 (NCI-H522 lung) [µM] | TGI (NCI-H522 lung) [µM] | GI50 (CCRF-CEM leukemia) [µM] | TGI (CCRF-CEM leukemia) [µM]
C=C1C(=O)O[C@H]2[C@H]1CC/C(Cn1cc(-c3cc(C)c(C)cc3C)nn1)=C\CC[C@@]1(C)O[C@@H]21 | 0.927 | 2.38 | 0.436 | 1.68 | 1.73 | 4.31 | 1.35 | 2.63 | 0.528 | 1.89 | 1.18 | 4.11 | 0.643 | 2.15 | 0.701 | 2.12 | 0.282 | 1.17 | 0.458 | 2.65
COc1ccc(-c2cc(=O)c3c(OC)c(OC)c(OC)c(OC)c3o2)c(OC)c1 |  | > 100 |  | 55.3 |  | > 100 |  | > 100 |  | 62.8 |  | > 100 |  | 34.3 |  | 94.4 |  | 29.1 |  | > 100
COc1cc2c(cc1OCCCCOc1ccc(-c3nc4ccccc4s3)cc1)N=C[C@@H]1CCCN1C2=O | 1.19 | 7.98 | 0.335 | 0.957 | 2.8 | 8.15 | 0.426 | 2.05 | 0.581 | 2.43 | 0.337 | 1.42 | 0.655 | 1.76 | 1.24 | 9.02 | 0.565 | 1.93 | 0.456 | 2.38
C=C1C(=O)OC2CC(C)C3C=CC(=O)C3CC12 (stereo not given) |  | 14.4 |  | 4.04 |  | 24 |  | 21.7 |  | 8.41 |  | 7.03 |  | 3.34 |  | 9.68 |  | 1.95 |  | 5.14
Nc1ncnc2c1cnn2Cc1ccc(Cl)cc1 |  | > 100 |  | > 92.5 |  | > 100 |  | > 100 |  | > 100 | > 100 | > 100 |  | > 100 |  | > 100 |  | > 100 |  | > 100
NC(=O)c1ccc2nc3c(n2c1)C(=O)C(=O)c1ccccc1-3 | 0.403 | 1.63 | 1.77 | 3.33 | 2.18 | 4.48 | 0.928 | 2.24 | 1.47 | 2.79 | 2.2 | 5.52 | 1.91 | 3.82 | 0.481 | 1.71 | 0.679 | 2.18 | 0.931 | 5.42
C=CC1=C(C)C2=NC1=CC1=NC(=CC3=C(C)C4=C(O)C(C(=O)OC)C(=C5NC(=C2)C(C)C5CCC(=O)OC)C4=N3)C(CC)=C1C (stereo not given) |  | > 100 |  | > 100 |  | > 100 |  | > 100 |  | > 100 |  | > 100 |  | > 100 |  | > 100 |  | > 100 |  | > 100
CCNCCCn1c2c(c3ccc([N+](=O)[O-])cc3c1=O)C(=O)c1cc(OC)cnc1-2 | 0.0519 | 0.479 | 0.471 | 17.4 | 0.0776 | 0.296 | 0.0558 | 1.16 | 0.0327 | 0.176 | 0.0813 | 0.976 | 0.0874 | 1.67 | 0.176 | 1.49 | 0.0361 | 0.898 | 0.0366 | 1.23
NS(=O)(=O)c1ccc(NC(=O)c2cccc3cc4ccccc4nc23)cc1 |  | > 100 |  | > 100 |  | > 100 |  | > 100 |  | > 100 |  | > 100 |  | > 100 |  | > 100 |  | > 100 |  | > 100
CCOC(=O)Nc1nc2c(C)cccc2s1 | 52.8 | > 100 | 13.9 | 71.5 | 43.9 | > 100 | 51.1 | > 100 | 33.5 | > 100 | 31.4 | > 100 | > 100 | > 100 | 43.2 | > 100 | 47.8 | > 100 | 54.8 | > 100
COc1ccc(OC)c2c(=S)c3ccccc3[nH]c12 |  | > 100 |  | > 100 |  | > 100 |  | > 100 |  | > 100 |  | > 100 |  | > 100 |  | > 100 |  | > 100 |  | > 86.1
Cc1c(N=Cc2ccc(N(CCC#N)CCC#N)cc2)c(=O)n(-c2ccccc2)n1C |  | > 100 |  | 99 |  | > 100 |  | > 100 |  | > 100 |  | > 100 |  | > 100 |  | > 100 |  | > 100 |  | > 100
CC(C)c1ccc(NC(=S)NC(=O)c2ccccc2)cc1 |  | > 100 |  | > 100 |  | > 100 |  | 70.8 |  | 32.7 |  | > 100 |  | 33.6 |  | 55.2 |  | 37.5 |  | 49.6
COc1ccc(N(/C=C/C(=O)C(F)(F)F)CC(=O)c2ccc(Cl)c(Cl)c2)cc1 | 13.2 | 36.6 | 13.2 | 41.8 | 17.7 | 68 | 11.3 | 24.6 | 24.1 | > 100 | 5.56 | 56.6 | 20.2 | 39.6 | 32 | > 100 | 19.4 | 43.7 | 3.39 | 18.3
CC(=O)OC1Oc2ccccc2-c2oc(=O)c(-c3cc4ccccc4oc3=O)cc21 (stereo not given) | 17.8 | 36.7 | 19.3 | 45.6 | 15.4 | 33 | 20.1 | 52.5 | 18 | 35.4 | 18.7 | 41.2 | 35.5 | > 100 | 23.1 | 50.9 | 18.5 | 36.3 | 23.2 | 54.2
COc1ccccc1/C=C/C(=O)/C=C/c1ccccc1OC | 2.58 | 8.88 | 2.1 | 5.04 | 2.35 | 7 | 1.96 | 4.15 | 1.83 | 3.33 | 2.25 | 8.43 | 1.94 | 3.5 | 1.51 | 16.6 | 1.67 | 3.26 | 2.04 | 9.19
C=C1C[C@@]2(C)C(CC[C@]3(C)C2CC=C2C4CC(C)(C)C[C@@H](OC(=O)/C(C)=C\C)[C@]4(C(=O)O)CC[C@]23C)C(C)(C)C1=O (stereo not given in full) | 3.75 | 27.5 | 2.34 | 7.15 | 3.8 | 25.8 | 4.37 | 16 | 1.89 | 3.92 | 1.42 | 5.69 | 3.59 | 17.6 | 4.76 | 18.2 | 2.76 | 10.1 | 2.11 | 22.9
Cc1cc(N(CCCl)CCCl)ccc1/C=N/NC(=O)Cc1cc(=O)oc2cc(O)ccc12 |  | > 100 |  | > 100 |  | 42.2 |  | > 100 |  | 47.2 |  | 57.5 |  | 36.7 |  | > 100 |  | 31.5 |  | 46
COc1ccccc1-c1cc(=O)c2ccc(OC)c(OC)c2o1 |  | > 100 |  | > 100 |  | > 100 |  | > 100 |  | > 100 |  | > 100 |  | > 100 |  | > 100 |  | > 100 |  | > 100
C/C(=N\N=C(N)N)C(CN(C)C)C(c1ccccc1)c1c(O)c2ccccc2oc1=O (stereo not given) |  | > 100 |  | > 100 |  | > 100 |  | > 100 |  | > 100 |  | > 100 |  | > 100 |  | > 100 |  | > 100 |  | > 100
COc1ccc2c(c1)/C(=N/OC(C)=O)c1c-2c(=O)[nH]c2ccccc12 | 14.7 | 31.8 | 11.1 | 38.3 | 15.8 | 31.3 | 10.6 | 25.3 | 11.1 | 25.2 | 5.12 | 21.8 | 12.2 | 31.7 | 4.88 | 21.3 | 13.5 | 31.4 | 4.09 | 23.6
CCSc1nnc(-c2ccc3ccccc3c2O)n1-c1ccc(Cl)cc1 | 5.5 | > 100 | 9.23 | > 100 | 4.51 | > 100 | 13.1 | > 100 | 3.31 | > 100 | 4.83 | > 100 | 47.4 | > 100 | 5.71 | > 100 | 5.15 | > 100 | 3.58 | > 100
CC(C)Nc1ncc2cc(Oc3ccc(F)cc3F)c(=O)n(C)c2n1 | > 25 | > 25 | 2.89 | 21.6 | > 25 | > 25 | > 25 | > 25 | 5.17 | > 13.4 | > 25 | > 25 | > 25 | > 25 | > 25 | > 25 | > 25 | > 25 | > 25 | > 25
CS(=O)(=O)OCCN(CCOS(C)(=O)=O)c1ccc(C=O)cc1 |  | 32.4 |  | 44.5 |  | 35.8 |  | 7.17 |  | 3.09 |  | 75.4 |  | 9.58 |  | 37.6 |  | 0.553 |  | 46.2
CCC(C)C1NC(=O)C(CC(C)C)NC(=O)C(C)NC(=O)C(C(C)C)NC(=O)C(CCCCN)NC(=O)C(CC(C)C)NC(=O)C(C(C)C)NC(=O)[C@H](C)NC(=O)C(C(C)CC)NC(=O)C(CCCN=C(N)N)NC(=O)C(CCCCN)NC(=O)C(CCCN=C(N)N)NC(=O)C(CCCCN)NC(=O)C([C@H](C)CC)NC(=O)C(CCCCN)NC1=O (stereo not given in full) (cyclo(A[ξV][ξL][ξK][ξV][ξA][ξL][ξI][ξK][X21][ξK][ξR][ξK][ξR][ξI])) | 1.48 | 4.87 | 1.14 | 2.91 | 1.48 | 4.41 | 1.81 | 4.75 | 1.37 | 2.67 | 0.305 | 1.13 | 1.49 | 3.85 | 0.72 | 10.2 | 1.45 | 3.88 | 1.43 | 5.07
CNCCCNCCCN1C(=O)c2ccc3c4c(ccc(c24)C1=O)C(=O)N(CCCNCc1ccccc1OC)C3=O | 0.797 | 9.43 | 2.13 | 8.05 | 0.577 | 4.97 | 1.05 | 2.39 | 5.88 | 27.5 | 1.64 | 9.44 | 0.498 | 1.85 | 0.642 | 2.04 | 1.23 | 2.83 | 0.465 | 4.53
C=C1C(=O)O[C@H]2[C@H]1CC/C(COC(=O)c1ccccc1)=C\CC[C@@]1(C)O[C@@H]21 | 2.28 | 9.28 | 0.984 | 2.61 | 3.33 | 13 | 1.06 | 2.29 | 1.2 | 2.49 | 0.375 | 2.44 | 1.37 | 3.14 | 2.64 | 9.87 | 1.06 | 2.79 | 0.281 | 1.3
CC1(C)CC(Nc2ccc(Nc3ccccc3)cc2)CC(C)(C)N1 |  | 66.3 |  | 33.9 |  | > 86.2 |  | 61.1 |  | 24.6 |  | 37.3 |  | 32.5 |  | 61.9 |  | 26.6 |  | 29.9
Cc1cc(=O)oc2cc(OS(C)(=O)=O)ccc12 |  | > 100 |  | > 100 |  | > 100 |  | > 100 |  |  |  | > 100 |  | > 100 |  | > 100 |  | > 100 |  | > 100
